Experimental data reported in article PMC10323144, “Garbage in, garbage out: how reliable training data improved a virtual screening approach against SARS-CoV-2 MPro” (Frontiers in Pharmacology, 2023).
Square brackets hold non-standard residues; d marks the D form. Peptide text beside a SMILES is read from it. * marks the point of attachment. Sar = CNCC(=O)O; tBu = CC(C)(C)*

Biological target: SARS-CoV-2 MPro (Severe acute respiratory syndrome coronavirus 2, UniProt P0DTD1)
Test: MPro activity assay (de-quenching of Edans fluorescence on cleavage of a Dabcyl/Edans peptide)
Assay type: biochemical
Settings: for Class (MPro activity class): in-house acquired data, internal screening under standardized conditions (128 compounds); for activity at 25 µM: read-out: MPro activity (%)

Compound | Class (MPro activity class) | other results
COC(=O)CC(=O)Nc1nc2c(s1)CC(NC(=O)c1[nH]c(C)c(Cl)c1Cl)CC2 (stereo not shown) [Cpd 53] | 0 (compounds with IC50 > 20 μM, percentage inhibition <80% at 20 µM or 50 μM, or percentage enzyme inhibition <50% at 10 µM were labelled as INACTIVE) | 
CN(CCc1ccc(Cl)cc1)C(=S)c1ccccc1I [COV19183] | 0 (compounds with IC50 > 20 μM, percentage inhibition <80% at 20 µM or 50 μM, or percentage enzyme inhibition <50% at 10 µM were labelled as INACTIVE) | 
O=c1c2ccccc2sn1-c1ccc([N+](=O)[O-])cc1 [COV19014] | 1 (Compounds with IC50 < 10 µM or with a percentage of enzyme inhibition >50% at 10 µM were labelled as ACTIVE) | 
O=[N+]([O-])c1ccc(CS(=O)(=O)/C=C/c2ccc3nonc3c2)cc1 [17d] |  | activity at 25 µM: 116 ± 15%
Cc1ccc(NC(=O)c2ccccc2I)cc1 [COV19025] | 0 (compounds with IC50 > 20 μM, percentage inhibition <80% at 20 µM or 50 μM, or percentage enzyme inhibition <50% at 10 µM were labelled as INACTIVE) | 
CCN(CC)c1ccc(-c2ccc(C(=O)OC)cc2)cc1 [Mal1] | 0 (compounds with IC50 > 20 μM, percentage inhibition <80% at 20 µM or 50 μM, or percentage enzyme inhibition <50% at 10 µM were labelled as INACTIVE) | 
O=C1NCCCCC1n1sc2ccccc2c1=O (stereo not shown) [COV19020] | 1 (Compounds with IC50 < 10 µM or with a percentage of enzyme inhibition >50% at 10 µM were labelled as ACTIVE) | 
Cc1ccc(S(=O)(=O)/C=C\c2ccc3no[n+]([O-])c3c2)cc1 [19d] |  | activity at 25 µM: 98.6 ± 2.4%
COc1cc(C2C(C(=O)c3ccc4c(c3)OCCO4)=C(O)C(=O)N2c2nc3ccc(Cl)cc3s2)ccc1O (stereo not shown) [ADRMC158] | 0 (compounds with IC50 > 20 μM, percentage inhibition <80% at 20 µM or 50 μM, or percentage enzyme inhibition <50% at 10 µM were labelled as INACTIVE) | 
O=c1c2ccccc2sn1-c1ccccc1 [COV19010] | 1 (Compounds with IC50 < 10 µM or with a percentage of enzyme inhibition >50% at 10 µM were labelled as ACTIVE) | 
CCCN1C(=O)C(O)=C(C(=O)c2ccccc2)C1c1ccccc1 (stereo not shown) [AD85] | 0 (compounds with IC50 > 20 μM, percentage inhibition <80% at 20 µM or 50 μM, or percentage enzyme inhibition <50% at 10 µM were labelled as INACTIVE) | 
O=c1c2ccccc2sn1Cc1ccc(C(F)(F)F)cc1 [COV19004] | 1 (Compounds with IC50 < 10 µM or with a percentage of enzyme inhibition >50% at 10 µM were labelled as ACTIVE) | 
CC(=O)OC[C@H]1O[C@@H](Sc2ccccc2)[C@H](OC(C)=O)[C@@H](OC(C)=O)C1OC(C)=O (stereo partly shown) [6a] |  | activity at 25 µM: 60.9 ± 1.5%
Cc1ccc([S+]([O-])/C=C\c2ccc3no[n+]([O-])c3c2)cc1 (stereo not shown) [14d] |  | activity at 25 µM: 73.8 ± 4.4%
CC(=NNC(N)=S)c1cc2ccccc2oc1=O [COV19136] | 0 (compounds with IC50 > 20 μM, percentage inhibition <80% at 20 µM or 50 μM, or percentage enzyme inhibition <50% at 10 µM were labelled as INACTIVE) | 
O=c1c2ccccc2sn1-c1ccc(C(F)(F)F)cc1 [COV19012] | 1 (Compounds with IC50 < 10 µM or with a percentage of enzyme inhibition >50% at 10 µM were labelled as ACTIVE) | 
O=C(O[C@@H]1Cc2c(O)cc(O)cc2O[C@@H]1c1ccc(O)c(O)c1)c1cc(O)c(O)c(O)c1 [5b, epicatechin gallate] |  | activity against MPro (in words) (25 μM where stated): full inhibition; activity at 25 µM: 0%
CC(OC(C)(C)C)C1NC(=O)CN(C)C(=O)C(Cc2ccccc2)NC(=O)CN(C)C1=O (stereo not shown) [vCOV194214] (cyclo([Sar]F[Sar]T(tBu)); configuration not given here) | 0 (compounds with IC50 > 20 μM, percentage inhibition <80% at 20 µM or 50 μM, or percentage enzyme inhibition <50% at 10 µM were labelled as INACTIVE) | 
O=C(c1ccc2no[n+]([O-])c2c1)N1CCOCC1 [21d] |  | activity at 25 µM: 78.7 ± 3.2%
CCn1nc(C)cc1C(=O)N(Cc1ccccc1)Cc1ccccc1 [ZVR-117] | 0 (compounds with IC50 > 20 μM, percentage inhibition <80% at 20 µM or 50 μM, or percentage enzyme inhibition <50% at 10 µM were labelled as INACTIVE) | 
COc1ccc2no[n+]([O-])c2c1 [6d] |  | activity at 25 µM: 85.8 ± 3.5%
O=C(C1=C(O)C(=O)N(c2nc3ccc(Cl)cc3s2)C1c1ccc(F)cc1)c1ccc2c(c1)OCCO2 (stereo not shown) [ADRMC150] | 0 (compounds with IC50 > 20 μM, percentage inhibition <80% at 20 µM or 50 μM, or percentage enzyme inhibition <50% at 10 µM were labelled as INACTIVE) | 
O=c1c2ccccc2sn1-c1ccc(Cl)cc1 [COV19016] | 1 (Compounds with IC50 < 10 µM or with a percentage of enzyme inhibition >50% at 10 µM were labelled as ACTIVE) | 
O=c1c2ccccc2sn1-c1nc2cc(Sc3ccccc3)ccc2[nH]1 [COV19021] | 1 (Compounds with IC50 < 10 µM or with a percentage of enzyme inhibition >50% at 10 µM were labelled as ACTIVE) | 

Compound | Class (MPro activity class) | other results
O=c1c2ccccc2sn1Cc1ccc(F)cc1 [COV19003] | 1 (Compounds with IC50 < 10 µM or with a percentage of enzyme inhibition >50% at 10 µM were labelled as ACTIVE) | 
Cc1c(C(=O)Nc2ccccc2)[n+]([O-])c2cc(CN(C)CC=Cc3ccccc3)ccc2[n+]1[O-] [COV19291] | 0 (compounds with IC50 > 20 μM, percentage inhibition <80% at 20 µM or 50 μM, or percentage enzyme inhibition <50% at 10 µM were labelled as INACTIVE) | 
O=C(Nc1nc2c(s1)CC(NC(=O)c1cc(Br)c(Br)[nH]1)CC2)c1c[nH]cn1 (stereo not shown) [Cpd 47] | 0 (compounds with IC50 > 20 μM, percentage inhibition <80% at 20 µM or 50 μM, or percentage enzyme inhibition <50% at 10 µM were labelled as INACTIVE) | 
[O-][S+](/C=C/c1ccc2nonc2c1)c1ccccc1 (stereo not shown) [16d] |  | activity at 25 µM: 71.9 ± 11%
Cc1cccc(Cl)c1NC(=O)c1ccccc1I [COV19028] | 0 (compounds with IC50 > 20 μM, percentage inhibition <80% at 20 µM or 50 μM, or percentage enzyme inhibition <50% at 10 µM were labelled as INACTIVE) | 
O=C(Cn1ccnc1NC(=O)c1ccccc1I)NCc1ccccc1 [COV19022] | 0 (compounds with IC50 > 20 μM, percentage inhibition <80% at 20 µM or 50 μM, or percentage enzyme inhibition <50% at 10 µM were labelled as INACTIVE) | 
Cc1cccc(C(=O)Nc2ccccc2)c1I [COV19034] | 0 (compounds with IC50 > 20 μM, percentage inhibition <80% at 20 µM or 50 μM, or percentage enzyme inhibition <50% at 10 µM were labelled as INACTIVE) | 
CC(C)(C)OC(=O)N1CCC(Oc2cc(C(=O)NCC(=O)O)ccc2NC(=O)c2cc(Br)c(Br)[nH]2)CC1 [UL-DBT26] | 0 (compounds with IC50 > 20 μM, percentage inhibition <80% at 20 µM or 50 μM, or percentage enzyme inhibition <50% at 10 µM were labelled as INACTIVE) | 
CCOC(=O)C(=O)Nc1nc2c(s1)CC(NC(=O)c1cc(Br)c(Br)[nH]1)CC2 (stereo not shown) [Cpd 55] | 0 (compounds with IC50 > 20 μM, percentage inhibition <80% at 20 µM or 50 μM, or percentage enzyme inhibition <50% at 10 µM were labelled as INACTIVE) | 
CC(=NNC(=S)Nc1ccccc1)c1cc2ccccc2oc1=O [COV19139] | 0 (compounds with IC50 > 20 μM, percentage inhibition <80% at 20 µM or 50 μM, or percentage enzyme inhibition <50% at 10 µM were labelled as INACTIVE) | 
NC(=O)c1ccccc1I [COV19035] | 0 (compounds with IC50 > 20 μM, percentage inhibition <80% at 20 µM or 50 μM, or percentage enzyme inhibition <50% at 10 µM were labelled as INACTIVE) | 
COc1ccc2nc(N3C(=O)C(O)=C(C(=O)c4ccc5c(c4)OCCO5)C3c3ccc(O)c(OC)c3)sc2c1 (stereo not shown) [ADRMC156] | 0 (compounds with IC50 > 20 μM, percentage inhibition <80% at 20 µM or 50 μM, or percentage enzyme inhibition <50% at 10 µM were labelled as INACTIVE) | 
COc1cccc(OC)c1NC(=O)c1ccccc1I [COV19031] | 0 (compounds with IC50 > 20 μM, percentage inhibition <80% at 20 µM or 50 μM, or percentage enzyme inhibition <50% at 10 µM were labelled as INACTIVE) | 
Cc1cc(Cl)cc(I)c1C(=O)NCc1ccccc1 [COV19039] | 0 (compounds with IC50 > 20 μM, percentage inhibition <80% at 20 µM or 50 μM, or percentage enzyme inhibition <50% at 10 µM were labelled as INACTIVE) | 
Cc1ccc(NC(=O)c2c(C)cc(Cl)cc2I)cc1 [COV19038] | 0 (compounds with IC50 > 20 μM, percentage inhibition <80% at 20 µM or 50 μM, or percentage enzyme inhibition <50% at 10 µM were labelled as INACTIVE) | 
COc1cc(C2C(C(=O)c3ccc4c(c3)OCCO4)=C(O)C(=O)N2c2nc3ccc(C)cc3s2)ccc1O (stereo not shown) [ADRMC152] | 0 (compounds with IC50 > 20 μM, percentage inhibition <80% at 20 µM or 50 μM, or percentage enzyme inhibition <50% at 10 µM were labelled as INACTIVE) | 
O=C(Nc1cccc2ccccc12)c1ccccc1I [COV19033] | 0 (compounds with IC50 > 20 μM, percentage inhibition <80% at 20 µM or 50 μM, or percentage enzyme inhibition <50% at 10 µM were labelled as INACTIVE) | 
O=C1C(Oc2ccccc2)C(c2ccc(B(O)O)cc2)N1Cc1ccccc1 (stereo not shown) [Mal3] | 0 (compounds with IC50 > 20 μM, percentage inhibition <80% at 20 µM or 50 μM, or percentage enzyme inhibition <50% at 10 µM were labelled as INACTIVE) | 
COc1ccc(C(=O)C2=C(O)C(=O)N(c3nc4ccc(Cl)cc4s3)C2c2ccc(F)cc2)cc1OC (stereo not shown) [ADKPN164] | 0 (compounds with IC50 > 20 μM, percentage inhibition <80% at 20 µM or 50 μM, or percentage enzyme inhibition <50% at 10 µM were labelled as INACTIVE) | 
[O-][n+]1cc[n+]([O-])c2ccccc21 [38d] |  | inhibition at 25 µM (read-out: MPro inhibition): 20 to 40%
CC(=NNC(N)=[Se])c1cc2ccccc2oc1=O [COV19145] | 0 (compounds with IC50 > 20 μM, percentage inhibition <80% at 20 µM or 50 μM, or percentage enzyme inhibition <50% at 10 µM were labelled as INACTIVE) | 
CCCCN(CCCC)C(=O)c1cnc(N)o1 [ZVR-103] | 0 (compounds with IC50 > 20 μM, percentage inhibition <80% at 20 µM or 50 μM, or percentage enzyme inhibition <50% at 10 µM were labelled as INACTIVE) | 
CCOC(=O)CN(C(=O)C1(C)CCc2c(C)c(O)c(C)c(C)c2O1)C(C(=O)NCCc1ccccc1)c1ccccc1 (stereo not shown) [vCOV194134] | 0 (compounds with IC50 > 20 μM, percentage inhibition <80% at 20 µM or 50 μM, or percentage enzyme inhibition <50% at 10 µM were labelled as INACTIVE) | 
Cc1cccc(Cl)c1-n1sc2ccccc2c1=O [COV19011] | 1 (Compounds with IC50 < 10 µM or with a percentage of enzyme inhibition >50% at 10 µM were labelled as ACTIVE) | 
